Data: patent publication US8058285B2, “Substituted pyrido [3′, 2′: 4, 5] thieno [3, 2-D] pyrimidines and pyrido [3′, 2′: 4, 5] furo [3, 2-D] pyrimidines used as inhibitors of the PDE-4 and/or the release of TNF-ALPHA” (The Medicines Company (Leipzig) GmbH, priority 2004, dated 2011)
Where a name gives a salt, the structure may show the parent alone.

Target: T1, PDE-4A (Homo sapiens, UniProt P27815)
T1 construct: PDE-4A catalytic domain comprising amino acids 342-704; made in house; host or cells: Escherichia coli
Assay: PDE-4A inhibitory assay (SPA)
Assay type: biochemical
Method in brief: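 Human recombinant PDE-4A catalytic domain (aa 342-704), E. coli-expressed. SPA with 1 μM [^3H]-cAMP substrate in 100 mM Tris-HCl pH 7.5, 5 mM MgCl2, 1% DMSO; 20 min at 22° C. Non-specific activity with 100 μM rolipram subtracted.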

T1 sequence (P27815 342-704): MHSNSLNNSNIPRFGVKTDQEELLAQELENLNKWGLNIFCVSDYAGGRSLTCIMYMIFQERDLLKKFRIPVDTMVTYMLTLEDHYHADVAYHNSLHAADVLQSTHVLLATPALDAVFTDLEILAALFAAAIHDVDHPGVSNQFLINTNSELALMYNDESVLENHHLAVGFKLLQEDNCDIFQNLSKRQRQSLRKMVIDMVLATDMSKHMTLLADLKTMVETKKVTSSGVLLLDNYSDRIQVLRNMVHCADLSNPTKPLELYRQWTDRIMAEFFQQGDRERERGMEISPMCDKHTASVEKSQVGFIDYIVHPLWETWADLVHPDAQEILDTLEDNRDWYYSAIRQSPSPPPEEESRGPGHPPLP

For CCOc1nc(N2CCNCC2)nc2c1sc1nc(-c3ccc(-c4ccc(N)cc4)cc3)nc(C)c12 [7-(4′-Aminobiphen-4-yl)-4-ethoxy-9-methyl-2-piperazin-1-yl-thieno[2,3-d:4,5-d′]dipyrimidine], the IC50 was under 2 nM.
Compound CCOc1nc(N2CCNCC2)nc2c1sc1nc(Cc3ccccc3)nc(C)c12 [7-Benzyl-4-ethoxy-9-methyl-2-piperazin-1-yl-thieno[2,3-d:4,5-d′]dipyrimidine] has an IC50 of 2 to 50 nM.
With CCOc1nc(N2CCNCC2)nc2c1sc1nc(N3CCOCC3)c3c(c12)CCC3 [7-Ethoxy-2,3-dihydro-4-morpholino-9-piperazin-1yl-1H-cyclopenta[4′,5′]pyrido[3′,2′:4,5]thieno[3,2-d]pyrimidine] the IC50 was 2 to 50 nM.
In the case of CCOc1nc(N2CCNCC2)nc2c1sc1nc(N3CCOCC3)c3c(c12)CCN(C)C3 [8-Ethoxy-3-methyl-5-morpholino-10-piperazin-1-yl-pyrimido[4′,5′:4,5]thieno[2,7]-1,2,3,4-tetrahydro-naphthyridine], the IC50 is reported as 2 to 50 nM.
CCOc1nc(N2CCNCC2)nc2c1sc1nc(N3CCN(C)CC3)c3c(c12)CCCC3 [8-Ethoxy-5-(N-methyl-piperazin-1-yl)-10-piperazin-1-yl-pyrimido[4′,5′:4,5]thieno[2,3-c]-1,2,3,4-tetrahydro-isoquinoline] gave an IC50 of 2 to 50 nM.
With CCOc1nc(N2CCNCC2)nc2c1sc1nc(-c3ccccc3)c3c(c12)CCCC3 [8-Ethoxy-5-phenyl-10-piperazin-1-yl-pyrimido[4′,5′:4,5]thieno[2,3-c]-1,2,3,4-tetrahydro-isoquinoline-hydrochloride] the IC50 was 2 to 50 nM.
CCOc1nc(N2CCNCC2)nc2c1sc1nc(N3CCCCC3)c3c(c12)CCCC3 [8-Ethoxy-5-piperidino-10-piperazin-1-yl-pyrimido[4′,5′:4,5]thieno[2,3-c]-1,2,3,4-tetrahydro-isoquinoline-hydrochloride] gave an IC50 of 2 to 50 nM.
Compound CCOc1nc(N2CCNCC2)nc2c1sc1nc(-c3ccc(Cl)cc3)cc(C(F)F)c12 [9-Difluoromethyl-7-(4-chloro-phenyl)-4-ethoxy-2-piperazin-1-yl-pyrido[3′,2′:4,5]thieno[3,2-d]pyrimidine] has an IC50 of 2 to 50 nM.
CCOc1nc(N2CCNCC2)nc2c1sc1nc(N3CCOCC3)c3c(c12)CCCCC3 [9-Ethoxy-6-morpholino-11-(piperazin-1-yl)-2,3,4,5-tetrahydro-1H-cyclohepta[4′,5′]pyrido[3′,2′:4,5]thieno[3,2-d]pyrimidine] gave an IC50 of 2 to 50 nM.
For Cc1cc(-c2ccccc2)nc2sc3c(OC(C)C)nc(N4CCNCC4)nc3c12 [9-Methyl-7-phenyl-2-(piperazin-1-yl)-4-iso-propoxy-pyrido[3′,2′:4,5]thieno[3,2-d]pyrimidine], the IC50 was 2 to 50 nM.
Cc1cc(-c2ccccc2)nc2sc3c(N4CCNCC4)nc(OC(C)C)nc3c12 [9-Methyl-7-phenyl-4-(piperazin-1-yl)-2-iso-propoxy-pyrido[3′,2′:4,5]thieno[3,2-d]pyrimidine] showed an IC50 of 2 to 50 nM.
CCCc1nc(N2CCNCC2)c2sc3nc(-c4ccccc4)cc(C)c3c2n1 [9-Methyl-7-phenyl-4-(piperazin-1-yl)-2-n-propyl-pyrido[3′,2′:4,5]thieno[3,2-d]pyrimidine] gave an IC50 of 2 to 50 nM.
CCCOc1nc(N2CCNCC2)c2sc3nc(-c4ccccc4)cc(C)c3c2n1 [9-Methyl-7-phenyl-4-piperazin-1-yl-2-n-propoxy-pyrido[3′,2′:4,5]thieno[3,2-d]pyrimidine] was tested, and the IC50 was 2 to 50 nM.
CCOc1nc(N2CCNCC2)nc2c1sc1nc(-c3ccc(C)cc3)cc(CC(C)C)c12 [9-iso-Butyl-4-ethoxy-7-(4-methyl-phenyl)-2-(piperazin-1-yl)-pyrido[3′,2′:4,5]thieno-[3,2-d]pyrimidine] showed an IC50 of 2 to 50 nM.
CCOc1nc(N2CCNCC2)c2sc3nc(-c4ccccc4)c4c(c3c2n1)CCCC4 [10-Ethoxy-5-phenyl-8-piperazin-1-yl-pyrimido[4′,5′:4,5]thieno[2,3-c]-1,2,3,4-tetrahydro-isoquinoline] showed an IC50 of 2 to 50 nM.
